The text below walks through data of article PMC12723449, “From Pharmacophore to Warhead: NAD^+‐Targeting Triazoles as Mechanism‐Based Sirtuin Inhibitors” (Angewandte Chemie (International Ed. in English), 2025).

Each structure is given as a SMILES string. “Also recorded” adds a separate entry of the source.

Assay [1] addresses T1, NanoLuc–SIRT2 fusion protein in HEK293T cells (Homo sapiens, UniProt Q8IXJ6).
T1 construct: HEK293T cells stably expressing the NanoLuc-SIRT250-364-fusion target protein were seeded into the coated plates; expressed in transfected cells; host or cells: HEK293T (stably expressing)
T1 sequence (Q8IXJ6 50-364 limits assumed): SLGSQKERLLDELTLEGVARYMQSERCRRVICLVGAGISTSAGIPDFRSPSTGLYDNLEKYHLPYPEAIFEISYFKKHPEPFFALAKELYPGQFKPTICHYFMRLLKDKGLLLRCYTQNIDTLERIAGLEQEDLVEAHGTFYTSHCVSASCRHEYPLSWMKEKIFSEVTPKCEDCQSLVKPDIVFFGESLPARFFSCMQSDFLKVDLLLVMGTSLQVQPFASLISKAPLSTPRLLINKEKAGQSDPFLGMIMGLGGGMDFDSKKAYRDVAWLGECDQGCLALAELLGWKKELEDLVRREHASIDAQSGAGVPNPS
The assay can be described thus: Kinetic NanoBRET washout assay (target residence time). It counts as cell-based. Particulars: 25 µM (5 × EC50), 2 h preincubation, 2 h washout. For orientation: Bioluminescence resonance energy transfer reports proximity on the nanometre scale.
Procedure: NanoBRET washout assay for determination of target residence time
A NanoBRET-based washout assay was used to assess the target residence time of inhibitors for SIRT2 in living cells. White, flat-bottom 96-well plates (PerkinElmer) were pre-coated with poly-L-lysine (Sigma-Aldrich) to enhance cell adherence. Briefly, each well was treated with poly-L-lysine solution for 5 min at room temperature, followed by removal of the coating solution and air-drying before seeding.
Cells were treated with the indicated inhibitor
After incubation, the inhibitor-containing medium was aspirated, and a washout procedure was performed to remove unbound inhibitor. Each well was washed twice by sequential addition and removal of 100 µL Opti-MEM (Thermo Fisher Scientific). Following the final wash, 90 µL Opti-MEM was added per well, followed by 100 µL of 2× Nano-Glo® substrate solution (Promega) and 10 µL of 20× SIRT2-Tracer solution.
BRET measurements were recorded kinetically using a Tecan Spark® plate reader equipped with donor (460 nm)
The BRET ratio was monitored over time to track the re-binding of the

Assay [2] concerns the target T2, NanoLuc–SIRT2 fusion protein in HEK293T cells (Homo sapiens, UniProt Q8IXJ6).
T2 construct: transfected HEK293T cells expressing the NanoLuc-tagged SIRT250-356 fusion protein were used instead of transient; expressed in transfected cells; host or cells: HEK293T (stably transfected)
T2 sequence (Q8IXJ6 50-356 limits assumed): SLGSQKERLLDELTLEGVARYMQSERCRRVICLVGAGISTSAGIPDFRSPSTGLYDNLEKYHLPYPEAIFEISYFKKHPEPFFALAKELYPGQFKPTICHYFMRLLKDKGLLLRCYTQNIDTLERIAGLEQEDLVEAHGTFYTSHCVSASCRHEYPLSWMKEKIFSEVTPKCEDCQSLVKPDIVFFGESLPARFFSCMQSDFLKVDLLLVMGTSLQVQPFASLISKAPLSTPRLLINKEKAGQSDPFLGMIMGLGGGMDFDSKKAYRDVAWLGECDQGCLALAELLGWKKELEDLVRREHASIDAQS
The arrangement: method as in PMID 35441145. Particulars: read-out: NanoBRET EC50; cited from earlier work.

The EC50 is the concentration that produces a half-maximal response. `O=C(NCc1cccnc1)c1ccc2c(c1)C1C3CCC(C3)C1C(c1ccccc1)N2` (centres unmarked) [AEM2, reference compound]: in assay [1], the inhibition after washout entry was “completely lost activity; also recorded: fades with washout over 2 h”. Further, the EC50 in assay [2] is 5.2 ± 0.2 µM.
